Reference: ChEMBL document CHEMBL5137064, “Therapeutic Potential and Activity Modulation of the Protein Lysine Deacylase Sirtuin 5” (J Med Chem, 2022)
*1 amine or outer side, *2 acyl side, *3 side chain or, on linkers, in order; H or OH if unused. Where a SMILES comes first, the peptide text is derived from it. Side-chain parts run from the residue outwards. The star is where a group is joined. ξ: configuration not given here. Succinyl(3ξ-Ph) = O=C(O)C(CC(=O)*)c1ccccc1; βAsp = O=C(O)[C@H](CC(=O)[*:2])N[*:1]; X4 = CC(=O)SC(CC(=O)*)C(=O)O; Cbz = O=C(OCc1ccccc1)*; Bz = O=C(c1ccccc1)*

Columns and labels:
[1] = biological target: T1, NAD-dependent protein deacylase sirtuin-5, mitochondrial (Homo sapiens, UniProt Q9NXA8); assay: Binding affinity to SIRT5 (unknown origin) assessed as desuccinylation activity by measuring dissociation constant
Target sequence in this assay (Q9NXA8 whole entry): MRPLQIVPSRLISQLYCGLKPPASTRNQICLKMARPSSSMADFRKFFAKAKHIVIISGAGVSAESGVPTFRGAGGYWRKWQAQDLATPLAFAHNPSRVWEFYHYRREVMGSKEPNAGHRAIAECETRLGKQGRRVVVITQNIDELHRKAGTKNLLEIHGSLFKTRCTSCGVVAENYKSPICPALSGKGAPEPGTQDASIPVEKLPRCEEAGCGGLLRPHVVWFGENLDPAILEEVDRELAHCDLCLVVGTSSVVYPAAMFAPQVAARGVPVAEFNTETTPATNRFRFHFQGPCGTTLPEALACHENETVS

[2] = biological target: T1, NAD-dependent protein deacylase sirtuin-5, mitochondrial; assay: Binding affinity to SIRT5 (unknown origin) assessed as desuccinylation activity by measuring inhibition constant
Target sequence in this assay (Q9NXA8 whole entry): as above

[3] = biological target: T2, NAD-dependent protein deacetylase sirtuin-3, mitochondrial (Homo sapiens) (UniProt Q9NTG7); assay: Inhibition of SIRT3 (unknown origin) at 50 uM incubated for 15 mins by fluorometric assay relative to control
T2 sequence (whole entry): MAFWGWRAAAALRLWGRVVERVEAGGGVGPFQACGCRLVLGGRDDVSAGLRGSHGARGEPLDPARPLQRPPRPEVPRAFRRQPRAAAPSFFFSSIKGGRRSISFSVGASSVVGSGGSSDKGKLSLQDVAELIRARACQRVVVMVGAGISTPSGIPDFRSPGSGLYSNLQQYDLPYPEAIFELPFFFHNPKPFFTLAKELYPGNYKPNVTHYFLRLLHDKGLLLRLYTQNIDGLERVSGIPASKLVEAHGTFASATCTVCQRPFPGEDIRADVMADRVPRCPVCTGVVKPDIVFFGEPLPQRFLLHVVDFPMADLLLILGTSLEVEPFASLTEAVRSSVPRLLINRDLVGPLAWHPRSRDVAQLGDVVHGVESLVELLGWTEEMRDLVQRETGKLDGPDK

[4] = biological target: T1, NAD-dependent protein deacylase sirtuin-5, mitochondrial; assay: Inhibition of SIRT5 (unknown origin) at 50 uM incubated for 15 mins by fluorometric assay relative to control
Target sequence in this assay (Q9NXA8 37-310 limits assumed): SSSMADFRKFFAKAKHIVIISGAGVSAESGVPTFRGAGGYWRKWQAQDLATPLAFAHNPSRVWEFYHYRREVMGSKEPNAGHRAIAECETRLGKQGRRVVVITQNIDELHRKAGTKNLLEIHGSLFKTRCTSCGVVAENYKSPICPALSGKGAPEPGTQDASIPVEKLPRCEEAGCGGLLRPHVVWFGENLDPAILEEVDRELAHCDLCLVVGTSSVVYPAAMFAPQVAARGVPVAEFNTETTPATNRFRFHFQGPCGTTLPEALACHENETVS

[5] = biological target: T1, NAD-dependent protein deacylase sirtuin-5, mitochondrial; assay: Inhibition of SIRT5 desuccinylase activity (unknown origin) using succinyl-lysine as substrate
Target sequence in this assay (Q9NXA8 whole entry): as the sequence (Q9NXA8 whole entry) above

OCI-AML2 [6] = assay: Induction of apoptosis in human OCI-AML2 cells at 10 uM relative to control; type: functional
SKM-1 [7] = assay: Induction of apoptosis in human SKM-1 cells at 5 uM relative to control; type: functional
[8] = biological target: T1, NAD-dependent protein deacylase sirtuin-5, mitochondrial; assay: Inhibition of human recombinant SIRT5 using fluorogenic Benzyl-Lys(Succinyl)-AMC as substrate incubated for 2 hrs measured by fluoroscence based microplate reader method
Target sequence in this assay (Q9NXA8 whole entry): as above

[9] = biological target: T1, NAD-dependent protein deacylase sirtuin-5, mitochondrial; assay: Inhibition of SIRT5 deglutarylase activity (unknown origin)
Target sequence in this assay (Q9NXA8 whole entry): as above

MOLM-13 = assay: Cytotoxicity against human MOLM-13 cells; type: functional, cell-based
[10] = biological target: T3, NAD-dependent protein deacetylase sirtuin-1 (Homo sapiens) (UniProt Q96EB6); assay: Inhibition of SIRT1 (unknown origin) at 1 uM relative to control
T3 sequence (whole entry): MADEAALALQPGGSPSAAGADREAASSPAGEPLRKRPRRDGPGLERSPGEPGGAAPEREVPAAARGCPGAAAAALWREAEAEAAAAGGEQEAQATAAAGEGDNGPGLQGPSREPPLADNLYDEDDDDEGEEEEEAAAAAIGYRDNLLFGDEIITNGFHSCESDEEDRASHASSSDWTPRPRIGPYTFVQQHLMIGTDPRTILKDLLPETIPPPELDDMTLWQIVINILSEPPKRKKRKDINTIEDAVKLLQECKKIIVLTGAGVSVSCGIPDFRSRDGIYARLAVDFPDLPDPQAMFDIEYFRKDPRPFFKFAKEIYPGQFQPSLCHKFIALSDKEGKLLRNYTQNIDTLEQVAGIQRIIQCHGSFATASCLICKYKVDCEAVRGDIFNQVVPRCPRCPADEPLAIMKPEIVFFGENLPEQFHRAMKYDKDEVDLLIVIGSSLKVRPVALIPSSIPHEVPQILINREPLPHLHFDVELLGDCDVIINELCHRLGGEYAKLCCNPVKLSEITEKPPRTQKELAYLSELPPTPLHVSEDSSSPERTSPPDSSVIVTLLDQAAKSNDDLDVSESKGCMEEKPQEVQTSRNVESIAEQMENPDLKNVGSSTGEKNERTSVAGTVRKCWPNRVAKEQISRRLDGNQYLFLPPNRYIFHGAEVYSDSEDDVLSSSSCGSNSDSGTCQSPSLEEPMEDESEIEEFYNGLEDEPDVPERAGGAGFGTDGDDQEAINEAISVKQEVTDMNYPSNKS

HEK-293T = assay: Cytotoxicity against human HEK293T cells at 100 uM relative to control; type: toxicity, cell-based
OCI-AML2 [11] = assay: cells; details: Homo sapiens
Description: Cytotoxicity against human OCI-AML2 cells

SKM-1 [12] = assay: cells; details: Homo sapiens
Description: Cytotoxicity against human SKM-1 cells

With `CC(C)C[C@H](NC(=O)[C@@H](NC(=O)CNC(=O)c1ccccc1)C(C)C)C(=O)N[C@@H](CCCCNC(=O)C[C@H](NC(=O)OCc1ccccc1)C(=O)O)C(=O)N[C@@H](CCC(=O)O)C(=O)N[C@@H](Cc1ccc(O)cc1)C(=O)NCC(=O)N[C@H](C(N)=O)C(C)C` (Bz-GVLK([βAsp-Cbz])EYGV-NH2) the Kd [1] was 5.78 µM and the Ki [2] was 38.1 µM.
Compound `O=C(CC[C@H](NC(=O)OCc1ccccc1)C(=O)O)NCCCC[C@H](NC(=O)OCc1ccccc1)C(=O)Nc1ccccc1` has an inhibition [3] of 8% and an inhibition [4] of 42%.
With `CC(=O)SC(CC(=O)NCCCC[C@H](NC(=O)[C@H](CC(C)C)NC(=O)[C@@H](NC(=O)CNC(=O)c1ccccc1)C(C)C)C(=O)N[C@@H](CCC(=O)O)C(=O)N[C@@H](Cc1ccc(O)cc1)C(=O)NCC(=O)N[C@H](C(N)=O)C(C)C)C(=O)O` (stereo partly specified) (Bz-GVLK(X4)EYGV-NH2) the Ki [2] was 10.6 µM.
`N=C(N)NCCC[C@@H]1NC(=O)CCCCC(=O)NCCCC[C@@H](C(N)=O)NC(=O)[C@H](CCCCNC(=S)NCCC(=O)O)NC1=O` showed an IC50 [5] of 6.5 µM.
For `CC(C)NC(=O)[C@H](Cc1c[nH]c2ccccc12)NC(=O)[C@H](CCCCNC(=S)NCCC(=O)O)NC(=O)OCc1ccccc1`, the Activity (OCI-AML2 [6]) was >80% and the Activity (SKM-1 [7]) was >80%.
`Cc1ccc(NC(=O)/C(C#N)=C/c2ccc(-c3ccc(C(=O)O)cc3)o2)cc1C` showed an IC50 [8] of 22.7 µM.
`Cc1cc(C)cc(NC(=O)/C(C#N)=C/c2ccc(-c3ccc(C(=O)O)cc3)o2)c1` was tested, and the IC50 [8] was 37.9 µM.
Work on `Cc1ccc(NC(=O)/C(C#N)=C/c2ccc(-c3ccc(C(=O)O)cc3C)o2)cc1C` yielded an IC50 [8] of 57.4 µM.
In the case of `O=C(O)CCNC(=S)NCCCC[C@H](NS(=O)(=O)c1cccc(F)c1)C(=O)N[C@@H](Cc1c[nH]c2ccccc12)C(=O)NC1CCCC1`, the IC50 [9] is reported as 0.23 µM.
`CC(C)C[C@H](NC(=O)[C@@H](NC(=O)CNC(=O)c1ccccc1)C(C)C)C(=O)N[C@@H](CCCCNC(=O)CC(C(=O)O)c1ccccc1)C(=O)N[C@@H](CCC(=O)O)C(=O)N[C@@H](Cc1ccc(O)cc1)C(=O)NCC(=O)N[C@H](C(N)=O)C(C)C` (stereo partly specified) (Bz-GVLK(Succinyl(3ξ-Ph))EYGV-NH2) gave a Kd [1] of 8.2 µM and a Ki [2] of 100 µM.
`O=C(NC1CCC1)[C@H](Cc1c[nH]c2ccccc12)NC(=O)[C@H](CCCCNC(=S)NCCc1noc(=S)[nH]1)NS(=O)(=O)c1cccc(F)c1` gave an IC50 [9] of 0.9 µM.
`CC(C)C(OC(=O)C(C)(C)C)n1nnnc1CCCNC(=S)NCCCC[C@H](NS(=O)(=O)c1cccc(F)c1)C(=O)N[C@@H](Cc1c[nH]c2ccccc12)C(=O)NC1CCC1` (stereo partly specified) showed an IC50 (MOLM-13) of 24 µM, an inhibition [10] of 76% and an Activity (HEK-293T) of 35%. For the same compound, the IC50 (OCI-AML2 [11]) was 20 µM and the IC50 (SKM-1 [12]) was 9 µM.
Compound `O=C(O)CCNC(=S)NCCCC[C@H](NS(=O)(=O)c1cccc(F)c1)C(=O)N[C@@H](Cc1c[nH]c2ccccc12)C(=O)NC1CC1` has an IC50 [9] of 0.26 µM.
